Experimental findings from ChEMBL document CHEMBL1139746, “Enzyme inhibition potency enhancement by active site metal chelating and hydrogen bonding induced conformation-restricted cyclopropanecarbonyl derivatives” (Bioorg Med Chem Lett, 2006) are described below.

Structures are written as SMILES.

Usually IC50 stands for the concentration needed to halve the response being measured. High values mean weaker potency, low ones greater potency.

The target of assay [1] is Dihydroorotate dehydrogenase (quinone), mitochondrial (Rattus norvegicus, UniProt Q63707). The experiment in a line: Inhibition of rat DHODH.
For assay [2], the target named is 4-hydroxyphenylpyruvate dioxygenase (Sus scrofa, UniProt Q02110). The experiment in a line: Inhibition of pig HPPD.
4-hydroxyphenylpyruvate dioxygenase, sequence (Q02110 whole entry): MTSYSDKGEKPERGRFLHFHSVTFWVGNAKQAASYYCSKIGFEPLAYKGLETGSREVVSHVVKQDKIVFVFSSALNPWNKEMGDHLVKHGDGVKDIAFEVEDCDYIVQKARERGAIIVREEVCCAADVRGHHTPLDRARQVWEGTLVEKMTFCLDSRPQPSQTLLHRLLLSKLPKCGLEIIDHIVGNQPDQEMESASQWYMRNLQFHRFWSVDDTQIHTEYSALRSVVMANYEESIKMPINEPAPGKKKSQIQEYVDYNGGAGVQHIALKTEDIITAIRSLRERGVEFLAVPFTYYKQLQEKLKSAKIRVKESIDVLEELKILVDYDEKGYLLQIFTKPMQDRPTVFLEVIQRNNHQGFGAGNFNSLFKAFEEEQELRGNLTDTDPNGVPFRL

Dihydroorotate dehydrogenase (quinone), mitochondrial, sequence (Q63707 whole entry): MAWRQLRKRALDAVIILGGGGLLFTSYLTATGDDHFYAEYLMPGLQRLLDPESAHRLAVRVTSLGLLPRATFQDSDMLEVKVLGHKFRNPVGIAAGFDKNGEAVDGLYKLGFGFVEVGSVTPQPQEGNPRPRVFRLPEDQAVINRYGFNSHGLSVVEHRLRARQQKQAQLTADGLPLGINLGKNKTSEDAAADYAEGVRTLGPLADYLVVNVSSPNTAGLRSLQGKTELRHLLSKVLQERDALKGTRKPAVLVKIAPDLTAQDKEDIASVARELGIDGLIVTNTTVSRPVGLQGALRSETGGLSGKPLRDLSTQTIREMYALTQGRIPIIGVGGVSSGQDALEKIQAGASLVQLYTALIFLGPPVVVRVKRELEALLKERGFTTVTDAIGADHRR

Compound `CC(C)/C(O)=C(\C#N)C(=O)Nc1ccc(C(F)(F)F)cc1` came in with an IC50 in assay [1] of 295 nM.

In the case of `O=C(c1c(O)c2ccccc2oc1=O)C1CC1`, in assay [2], the IC50 was 322 µM.

`O=C1CCCC(O)=C1C(=O)C1CCC1` came in with a half-inhibitory concentration (IC50) in assay [2] of 21 µM.

Compound `O=C1CCCC(O)=C1C(=O)C1CCCC1` had an IC50 in assay [2] of 33.1 µM.
